In patent US6172042A, “Synthetic peptides that inhibit IL-6 activity” (Yeda Research and Development Co. LTD, priority 1995, dated 2001):
Where a SMILES comes first, the peptide text is derived from it.

Test system: B9 plasmacytoma-derived cells
Conditions: 250 μg/ml
Protocol: To assay the biological activity of the peptides as inhibitors of IL-6 action against growth of plasmacytoma cells, a hybridoma cell line B9 whose growth is IL-6 dependent (Helle et al, 1988) was used. The B9 cells were cultured in suspension in growth medium RPMI 1640 (Biolabs Ltd., Israel) with 10% heat-inactivated fetal calf serum and 4 U/ml IL-6.
Prior to assay, the B9 cells were washed and incubated for 5 hours in growth medium but without IL-6. The cells were centrifuged, resuspended in growth medium with 2.5 units/ml (i.e. 7.5 IU/ml) of IL-6 and seeded in a 96-well microplate (Nunc, Denmark) at 50,000 cells in a final volume of 0.2 ml per well. A 25 µl of water solution with appropriate peptide concentration was included in the final volume of each well, i.e. the peptides at concentrations ranging from 62.5 μg/ml to 250 μg/ml (as well as a 0 μg/ml control) were added together with the IL-6. […] The optical absorbance at 530 nm wavelength of each well was measured as specified by the manufacturer. The absorbance is directly proportional to the number of living cells in the well as verified in calibration experiments from 50,000 to 10^6 B9 cells (0.25 OD530 corresponding to 5×10^5 B9 cells under the present experimental conditions). The results were expressed as the difference between final cell density with IL-6 and without IL-6. […]

In the case of `CSCC[C@H](NC(=O)[C@H](Cc1c[nH]c2ccccc12)NC(=O)[C@@H](NC(=O)[C@@H](NC(=O)[C@H](Cc1ccccc1)NC(=O)[C@@H](NC(=O)[C@H](CCCCN)NC(=O)[C@H](CO)NC(=O)[C@H](CCCNC(=N)N)NC(=O)[C@H](CCC(=O)O)NC(=O)[C@H](C)NC(=O)[C@H](CCCNC(=N)N)NC(=O)[C@H](Cc1ccc(O)cc1)NC(=O)[C@H](CCCNC(=N)N)NC(=O)[C@@H](N)CC(C)C)[C@@H](C)O)[C@@H](C)O)[C@@H](C)O)C(=O)N[C@H](C(=O)O)C(C)C` [peptide 1063, LRYRAERSKTFTTWMV] (H-LRYRAERSKTFTTWMV-OH), the “growth inhibition of B9 cells” value is reported as 99%.
